Literature values as cited in article PMC6722509, “Design and In Vivo Pharmacokinetic Evaluation of Triamcinolone Acetonide Microcrystals-Loaded PLGA Microsphere for Increased Drug Retention in Knees after Intra-Articular Injection” (Pharmaceutics, 2019).

Experiments:
[1] = 0.25 mg per knee, rats

CC1(C)O[C@@H]2C[C@H]3[C@@H]4CCC5=CC(=O)C=C[C@]5(C)[C@@]4(F)[C@@H](O)C[C@]3(C)[C@]2(C(=O)CO)O1 [TA, triamcinolone acetonide]
Solubility in ACN: < 1 mg/mL | Tolerability of IA dose [1]: well tolerated
